Patent US20160199380A1, “Sigma Ligands For the Prevention or Treatment of Pain Induced by Chemotherapy” (Laboratorios del Dr. Esteve, S.A., priority 2009, published 2016)

Columns and labels:
[1] = tested on: Oxaliplatin-induced cold allodynia; test: Acetone test, chronic model of oxaliplatin-induced neuropathy in rats; type: in vivo, Sprague-Dawley rats; conditions: for decrease in the reaction time of paw withdrawal as compared to the HPMC/distilled water-treated group: oxaliplatin 3 mg/kg i.p. 3 times a week + 0.5% HPMC; for reaction time of paw withdrawal (acetone test), curative treatment: throughout the study
Protocol: Sixty male Sprague-Dawley rats (CERJ, France), weighing 136-169 g at the beginning of the experimental phase (first administration of compounds on D-2), were used. Rats were housed in a temperature (19.5° C.-24.5° C.) and relative humidity (45%-65%) controlled room with a 12 h—light/dark cycle, with ad libitum access to standard pelleted laboratory chow and water throughout the study.
All treatments were administered in a coded order when it is possible.
Animals were tested 2 times during treatment with compound 63 (i.e. D8 and D15) and once 24 h after completion of treatment with compound 63 (i.e. D16).
During the testing days (i.e. D8, D15), compound 63 and 0.5% HPMC were administered 30 min before the test.
Cold allodynia was assessed by measuring the responses to thermal non-nocic ptive stimulation (acetone test) on D8, D15 and D16.
Cold allodynia was assessed using the acetone test. In this test, latency of hindpaw withdrawal was measured after application of a drop of acetone to the plantar surface of both hindpaws (reaction time) and the intensity of tne response was scored (cold score).
Reaction time to the cooling effect of acetone was measured within 20 sec (cut-off) after acetone application. Responses to acetone were also graded to the following 4-point scale: 0 (no response); 1 (quick withdrawal, flick of the paw); 2 (prolonged withdrawal or marked flicking of the paw); 3 (repeated flicking of the paw with licking or biting).
For each experimental group, the results were expressed as: • The reaction time defined as the time expressed in sec required to elicit paw reaction (mean of 6 measures for each rat together±SEM). • The cumulative cold score defined as the sum of the 6 scores for each rat together±SEM. The minimum score being 0 (no response to any of the 6 trials) and the maximum possible score being 18 (repeated flicking and licking or biting of paws on each of the six trials).
Statistical significance between the treated groups and the vehicle-treated group was determined by a Two-way Repeated Measures ANOVA on Ranks followed, when the F value is significant, by an appropriate post-hoc comparison (Bonferroni's test sing SigmaStet software. The significance level was p<0.05. Statistical analyses were done using SigmaStet software.

[2] = tested on: paclitaxel-induced cold allodynia; test: Acetone test, paclitaxel-induced cold allodynia in mice; type: in vivo, CD-1 mice
Protocol: (§1) Experiments were performed in CD-1 mice (Charles River, U.S.A.) with at least n=10/experimental group. […] Control animals received the same volume of solvent (a mixture of ethanol and cremophor EL)
(§2) Mechanical allodynia was evaluated with an electronically driven Von Frey filament (Dynamic Plantar. Aesthesiorneter, Ugo Basile, Varese, Italy) as previously described (Nieto et al., Pain, 2008, 137(3), 520-31), and cold allodynia was evaluated using the acetone drop method (Nieto et al., Pain, 2008, 137(3), 520-31). […] In addition, in order to study the influence of the sigma 1 receptor in this process the difference in development of allodynia was determined using wild-type mice and sigma 1-receptor knock-out-mice.
Therefore, the cumulative dose was 10 mg/kg per mouse. […]
The response of the animals to the different nociceptive stimuli was tested subsequently during 2-4 weeks, depending on the test (see below), without any additional treatment. Each animal was tested only in one nociceptive model. […] Each animal received only one dose of compound 63 and was tested in only one nociceptive model.
Procedure for assessment of cold allodynis. Cold allodynia was tested as previously described by Nieto et al., Pain, 2008, 137(3), 520-31, by gently touching the plantar skin of the hind paws with an acetone bubble formed with a syringe connected to a thin polyethylene tube. The mice were housed and habituated for 30 min in transparent plastic boxes (7×7×13 cm) with a floor made of wire mesh. After the adaptation period, acetone was applied alternately three times to each paw at intervals of 30 s, and the duration of licking or biting were recorded. A small mirror was placed behind the chambers to allow clear observation of the paws. The time spent licking or biting the paw was recorded by a stopwatch and represented as the cumulative time of licking/biting in the six measurements. Since licking persisting more than 10 s in the experiments was very unusual, a cut-off time of 10 s was used for each trial.
Therefore, the day 10, after the habituation period to the apparatus, baseline latencies were recorded, 30 min later compound 63 or saline was injected s.c. and paw withdrawal latencies were assessed again 60, 120 and 180 minutes after the injection.
(§3) On that day, duration of hind paw licking/biting was recorded immediately before (time 0) and at several times (60, 120 and 180 min) after the injection of compound 63 or saline.
as §3

[3] = tested on: paclitaxel-induced mechanical allodynia; test: Electronic Von Frey (Dynamic Plantar Aesthesiometer), paclitaxel-induced mechanical allodynia in mice; type: in vivo, CD-1 mice
Protocol: as §1, §2
Therefore, the cumulative dose was 10 mg/kg per mouse. In the control group the vehicle of paclitaxel was administered following the same schedule.
Compound 63 was dissolved in normal saline just before administration and applied at doses of 8, 16, 32 or 64 mg/kg subcutaneously.
The effects of Compound 63 on paclitaxel-induced neuropathic pain were examined in two different ways. […] The response of the animals to the different nociceptive stimuli was tested subsequently during 2-4 weeks, depending on the test (see below), without any additional treatment. Each animal was tested only in one nociceptive model. To test the effect of compound 63 on the expression of paclitaxel-induced pain, a single compound 63 injection was performed on day 10, a day of maximum expression of mechanical allodynia or cold aliodynia (see figures for details). Each animal received only one dose of compound 63 and was tested in only one nociceptive model.
Procedure for assessment of mechanical allodynia. To assess mechanical allodynia, paw withdrawal thresholds were measured using a Dynamic Plantar Aesthesiometer (Ugo Basile, Italy). The electronic Von Frey device employs a single nonflexible filament which applies a progressively increasing force (from 0 to 10 g) against the plantar surface of the hind paw over a 20 a period. […] The day of the experiment, mice were placed individually in test compartments (9×9×14 cm) with a wire mesh bottom and allowed to acclimatize to them for 2 h. After habituation, each mouse was tested three times alternately in each hind paw.
On that day, paw withdrawal latency was recorded immediately before (time 0) and at several times (30, 60, 90, 120 and 180 min) after the injection of compound 63 or saline.

[4] = tested on: patients treated with paclitaxel; conditions: paclitaxel dose 135 mg/m^2; cited from earlier work
[5] = tested on: Cisplatin-induced mechanical allodynia; type: in vivo, Wistar rats; conditions: rats
Protocol: Male Wistar rats (250-300 g) were obtained from Harlan-lberica (Barcelona, Spain). Upon arrival to our laboratory, animals were stored in standard transparent cages (40×28×25 cm) in environmentally controlled conditions (temperature=20° C,; humidity=60%) with a 12 h light/12 h dark cycle (lights on between 08:00 and 20:00 h). Animals were allowed free access to tap water and standard laboratory rat chow (Harlan-lberica, Barcelona, Spain).
Prior to the experiment, rats were habituated to isolation. Rats received intraperitoneal injections one day per week for 5 weeks of cisplatin (1 mg/kg)+vehicle (control group for acute treatment) or cisplatin (1 mg/kg)+compound 63 (25 mg/kg). The last week (day 36) control group received an acute administration of 64 mg/kg of compound 63.
Mechanical allodynia was assessed before cisplatin administration (basal) and at the end of each experimental week (w1, w2, w3, w4). For the acute evaluation of compound 63 (w5), the mechanical allodynia was assessed 50 minutes after drug administration. On those days, rats were placed individually on an elevated iron mesh in a clear plastic cage and were allowed to adapt to the testing environment for at least 10 min. Habituation to this environment was also performed on the two days before assessment. […] Only robust and immediate withdrawal responses from the stimulus were recorded. […]

[6] = 0.5% HPMC/Oxaliplatin-treated group, D8
[7] = 0.5% HPMC/Oxaliplatin-treated group, D15
[8] = 0.5% HPMC/Oxaliplatin-treated group, D16
[9] = paclitaxel 2 mg/kg i.p. once daily during 5 days, mice
[10] = paclitaxel 2 mg/kg i.p. during 5 days

O=C1[O][Pt]2([NH][C@@H]3CCCC[C@H]3[NH]2)[O]C1=O [Oxaliplatin, reference compound]
cumulative cold score (acetone test) [1, 6]: 5.0±0.8 | reaction time of paw withdrawal (acetone test) [1, 6]: 14.7 ± 0.9 s | cumulative cold score (acetone test) [1, 7]: 7.0±1.2 | reaction time of paw withdrawal (acetone test) [1, 7]: 11.5 ± 1.6 s | cumulative cold score (acetone test) [1, 8]: 6.7±0.9 | reaction time of paw withdrawal (acetone test) [1, 8]: 11.5 ± 0.9 s | decrease in the reaction time of paw withdrawal as compared to the HPMC/distilled water-treated group ([1]; D8): −19% | decrease in the reaction time of paw withdrawal as compared to the HPMC/distilled water-treated group ([1]; D15): −37% | decrease in the reaction time of paw withdrawal as compared to the HPMC/distilled water-treated group ([1]; D16): −36%

CC(=O)O[C@H]1C(=O)[C@@]2(C)[C@H]([C@H](OC(=O)c3ccccc3)[C@]3(O)C[C@H](OC(=O)[C@H](O)[C@@H](NC(=O)c4ccccc4)c4ccccc4)C(C)=C1C3(C)C)[C@]1(OC(C)=O)CO[C@@H]1C[C@@H]2O [Paclitaxel]
animals with significantly increased time licking/biting the stimulated paw (paclitaxel-responder animals) [2, 9]: 67% | paclitaxel-treated animals that did not show cold allodynia [2, 9]: 33% | animals showing a reduction of the mechanical threshold [3, 10]: 96% | non-responder animals (mechanical threshold on day 10 not lower than pretreatment) [3, 10]: about 4% | induction of mechanical allodynia (threshold force for paw withdrawal, Von Frey test) ([3]; paclitaxel 2 mg/kg i.p. during 5 days, day 10): induced mechanical allodynia | patients progressing to dose-limiting neurotoxicity [4]: 0%

Cc1cc(OCCN2CCOCC2)nn1-c1ccc2ccccc2c1 [Compound 63, 4-{2-[5-Methyl-1-(naphthalen-2-yl)-1H-pyrazol-3-yloxy]ethyl}morpholine]
response of the animals to acetone, co-administration with paclitaxel-vehicle ([2]; 64 mg/kg s.c. 30 min before each paclitaxel-vehicle injection, days 1-5, vs paclitaxel-vehicle + saline): did not significantly modify the response of the animals to acetone | response to acetone of control (paclitaxel-vehicle treated) animals ([2]; 64 mg/kg s.c. single injection on day 10, paclitaxel-vehicle treated mice): did not afex: the response to acetone | development of cold allodynia induced by paclitaxel (acetone test) ([2]; co-administration: 64 mg/kg s.c. 30 min before each paclitaxel 2 mg/kg i.p. injection, days 1-5, mice): inhibited the development of cold allodynia induced by paclitaxel | expression of paclitaxel-induced cold allodynia (duration of hind paw licking/biting, acetone test) ([2]; single s.c. injection 32-128 mg/kg on day 10 after paclitaxel 2 mg/kg i.p. days 1-5, mice, vs saline): inhibited the expression of paclitaxel-induced cold allodynia | mechanical response of control (paclitaxel-vehicle treated) animals ([3]; 64 mg/kg s.c. single injection on day 10 after first paclitaxel-vehicle injection): did not affect the mechanical response | expression of mechanical allodynia induced by paclitaxel (threshold force for hind paw withdrawal) ([3]; 64 mg/kg s.c. single injection on day 10 after paclitaxel 2 mg/kg i.p. days 1-5): inhibited the expression of mechanical aliodynia induced by paclitaxel | reaction time of paw withdrawal (acetone test), curative treatment ([1]; 20 mg/kg i.p. daily D8-D15): low effect | cumulative cold score (acetone test), curative treatment ([1]; 40 mg/kg i.p. daily D8-D15): intermediate effect | reaction time of paw withdrawal (acetone test), curative treatment ([1]; 40 mg/kg i.p. daily D8-D15): intermediate effect | reaction time of paw withdrawal (acetone test), preventive treatment ([1]; 40 mg/kg i.p. twice a day from D-2 to D15, oxaliplatin 3 mg/kg i.p., rats): induced a beneficial effect | cumulative cold score (acetone test) ([1]; curative, 20 mg/kg i.p., D8): 4.3±0.6 | cumulative cold score (acetone test) ([1]; curative, 80 mg/kg i.p. daily D8-D15, D15): 1.8±0.3 | reaction time of paw withdrawal (acetone test) ([1]; curative, 80 mg/kg i.p. daily D8-D15, D15, oxaliplatin 3 mg/kg i.p., rats): 17.5 ± 0.5 s | reaction time of paw withdrawal (acetone test) ([1]; curative, 80 mg/kg i.p. daily D8-D15, D16 (24 h after last dose), oxaliplatin 3 mg/kg i.p., rats): 15.5 ± 1.0 s | cumulative cold score (acetone test) ([1]; curative, 80 mg/kg i.p. daily D8-D15, D16, 24 hours after the last injection): 3.1±0.6 | reaction time of paw withdrawal (acetone test) ([1]; curative, 80 mg/kg i.p. daily from D8, D8, oxaliplatin 3 mg/kg i.p., rats): 19.1 ± 0.3 s | cumulative cold score (acetone test) ([1]; curative, 80 mg/kg i.p., D8): 1.0±0.4 | cumulative cold score (acetone test) ([1]; preventive, 40 mg/kg i.p. twice a day D-2 to D15, D8): 2.3±0.6 | cumulative cold score (acetone test) ([1]; preventive, 40 mg/kg i.p. twice a day D-2 to D15, D15): 3.0±0.6 | cumulative cold score (acetone test) ([1]; preventive, 40 mg/kg i.p. twice a day D-2 to D15, D16): 3.5±0.7 | von Frey pressure response, acute treatment ([5]; 64 mg/kg on week 5, 50 minutes before the test, cisplatin 1 mg/kg once a week for 5 weeks): reverted the effect induced by cisplatin to basal levels | development of mechanical allodynia, preventive treatment ([5]; coadministration of 25 mg/kg twice a day, one day per week, same days as cisplatin 1 mg/kg): prevented the development of mechanical allodynia by cisplatin
